Molecules are shown by their SMILES.

A short description of this data set: Solubility of rapamycin in solvents. It is filed as physicochemical. An excerpt:
Formulations for topical or transdermal delivery systems which effectively administer mTOR inhibitors to treat pain can be challenging to make. One such challenge can be caused by the structures of the various mTOR inhibitors and the associated solubility and/or stability challenges that exist for many of these compounds. […] Benzyl alcohol has been identified as a solvent that can effectively solubilize rapamycin. In particular, benzyl alcohol can support 20 wt % solutions and higher of rapamycin. […] For example, formulations utilizing Span 80 and/or Tween 20 as surfactants were only able to achieve benzyl alcohol loading of 20 wt % or less.

Consider `CO[C@H]1C[C@@H]2CC[C@@H](C)[C@@](O)(O2)C(=O)C(=O)N2CCCC[C@H]2C(=O)O[C@H]([C@H](C)C[C@@H]2CC[C@@H](O)[C@H](OC)C2)CC(=O)[C@H](C)/C=C(\C)[C@@H](O)[C@@H](OC)C(=O)[C@H](C)C[C@H](C)/C=C/C=C/C=C/1C` [rapamycin], for which the “solubility in aqueous compositions, ethanolic compositions, triglycerides, alkanes, and silicone systems” value is given as “poorly solubilized”. Also, the “solubility in benzyl alcohol” value (benzyl alcohol solution) is reported as not below 20 wt %.

The record behind these values is US20160184279A1, “METHODS OF TREATING PAIN AND/OR ITCH WITH SMALL MOLECULE INHIBITORS TARGETING AN mTOR PATHWAY” (Transderm, Inc., priority 2014, published 2016).
